Laboratory results taken from EP4722201A1, “3-PHENYLISOXAZOLINE-5-CARBOXAMIDE COMPOUND, AND PREPARATION METHOD THEREFOR, HERBICIDAL COMPOSITION THEREOF AND USE THEREOF” (Jiangsu Flag Chemical Industry Co., Ltd, priority 2023, dated 2024).

Legend:
Test in all cases: Indoor herbicide activity determination, Seed Treatment; pre-emergence (soil spray)
Format in all cases: in vivo
Aegilops tauschii = conditions: 120 g a.i./ha, read-out: Herbicidal activities (inhibition rate) Aegilops tauschii
In short: (§1)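 Pre-emergence soil spray; sandy soil pH 6.1, OM 1%, 7 cm pots; seeds covered, wetted from below, 24 h incubation under light at constant temperature; spray tower, 300 mm height, 390 mL/min nozzle flow; readout = % fresh-weight inhibition vs control at 21 d.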

Alopecurus japonicus = conditions: Dosage 240 g a.i./ha
In short: as §1

Alopecurus myosuroides = conditions: Dosage 240 g a.i./ha
In short: as §1

Cyperus iria = conditions: 120 g a.i./ha, read-out: Herbicidal activities (inhibition rate) Cyperus iria
In short: as §1

Digitaria sanguinalis = conditions: 120 g a.i./ha, read-out: Herbicidal activities (inhibition rate) Digitaria sanguinalis
In short: as §1

Eclipta prostrata = conditions: 120 g a.i./ha, read-out: Herbicidal activities (inhibition rate) Eclipta prostrata
In short: as §1

Leptochloa chinensis = conditions: Dosage 240 g a.i./ha
In short: as §1

Lolium multiflorum = conditions: Dosage 240 g a.i./ha
In short: as §1

Eleusine indica = conditions: Dosage 240 g a.i./ha
In short: as §1

COC(=O)[C@H]1C[C@@H](NC(=O)C2(C)CC(c3cc(F)cc(C(F)(F)F)c3)=NO2)CO1 (mixture of isomers) [I-377]
inhibition at 120 g/ha (Aegilops tauschii): 80 to 100% | Herbicidal activities, Alopecurus japonicus (inhibition rate class) (Alopecurus japonicus): A (A indicates that the inhibition rate was greater than or equal to 80% to 100%) | Herbicidal activities, Alopecurus myosuroides (inhibition rate class) (Alopecurus myosuroides): A (A indicates that the inhibition rate was greater than or equal to 80% to 100%) | inhibition at 120 g/ha (Cyperus iria): 60 to 80% | inhibition at 120 g/ha (Digitaria sanguinalis): 80 to 100% | inhibition at 120 g/ha (Eclipta prostrata): 40 to 60% | Herbicidal activities, Leptochloa chinensis (inhibition rate class) (Leptochloa chinensis): A (A indicates that the inhibition rate was greater than or equal to 80% to 100%) | Herbicidal activities, Lolium multiflorum (inhibition rate class) (Lolium multiflorum): A (A indicates that the inhibition rate was greater than or equal to 80% to 100%)

CC1(C(=O)N[C@H]2CO[C@@H](C(=O)O)C2)CC(c2cc(F)cc(OC(F)(F)F)c2)=NO1 (mixture of isomers) [I-378]
inhibition at 120 g/ha (Aegilops tauschii): 80 to 100% | Herbicidal activities, Alopecurus japonicus (inhibition rate class) (Alopecurus japonicus): A (A indicates that the inhibition rate was greater than or equal to 80% to 100%) | Herbicidal activities, Alopecurus myosuroides (inhibition rate class) (Alopecurus myosuroides): A (A indicates that the inhibition rate was greater than or equal to 80% to 100%) | inhibition at 120 g/ha (Cyperus iria): 60 to 80% | inhibition at 120 g/ha (Digitaria sanguinalis): 80 to 100% | inhibition at 120 g/ha (Eclipta prostrata): 40 to 60% | Herbicidal activities, Leptochloa chinensis (inhibition rate class) (Leptochloa chinensis): A (A indicates that the inhibition rate was greater than or equal to 80% to 100%) | Herbicidal activities, Lolium multiflorum (inhibition rate class) (Lolium multiflorum): A (A indicates that the inhibition rate was greater than or equal to 80% to 100%)

COC(=O)C1CC(NC(=O)C2(C)CC(c3cc(Cl)cc(C(F)(F)F)c3)=NO2)CO1 (stereo not shown) [I-386]
inhibition at 120 g/ha (Aegilops tauschii): 80 to 100% | Herbicidal activities, Alopecurus japonicus (inhibition rate class) (Alopecurus japonicus): A (A indicates that the inhibition rate was greater than or equal to 80% to 100%) | Herbicidal activities, Alopecurus myosuroides (inhibition rate class) (Alopecurus myosuroides): A (A indicates that the inhibition rate was greater than or equal to 80% to 100%) | inhibition at 120 g/ha (Cyperus iria): 60 to 80% | inhibition at 120 g/ha (Digitaria sanguinalis): 80 to 100% | inhibition at 120 g/ha (Eclipta prostrata): 40 to 60% | Herbicidal activities, Leptochloa chinensis (inhibition rate class) (Leptochloa chinensis): A (A indicates that the inhibition rate was greater than or equal to 80% to 100%) | Herbicidal activities, Lolium multiflorum (inhibition rate class) (Lolium multiflorum): A (A indicates that the inhibition rate was greater than or equal to 80% to 100%)

COC(=O)C1CC(NC(=O)C2(C)CC(c3cc(Cl)cc(OC(F)(F)F)c3)=NO2)CO1 (stereo not shown) [I-387]
inhibition at 120 g/ha (Aegilops tauschii): 80 to 100% | Herbicidal activities, Alopecurus japonicus (inhibition rate class) (Alopecurus japonicus): A (A indicates that the inhibition rate was greater than or equal to 80% to 100%) | Herbicidal activities, Alopecurus myosuroides (inhibition rate class) (Alopecurus myosuroides): A (A indicates that the inhibition rate was greater than or equal to 80% to 100%) | inhibition at 120 g/ha (Cyperus iria): 60 to 80% | inhibition at 120 g/ha (Digitaria sanguinalis): 80 to 100% | inhibition at 120 g/ha (Eclipta prostrata): 60 to 80% | Herbicidal activities, Leptochloa chinensis (inhibition rate class) (Leptochloa chinensis): A (A indicates that the inhibition rate was greater than or equal to 80% to 100%) | Herbicidal activities, Lolium multiflorum (inhibition rate class) (Lolium multiflorum): A (A indicates that the inhibition rate was greater than or equal to 80% to 100%)

CC1(C(=O)NC2COC(C(=O)O)C2)CC(c2cc(Cl)cc(OC(F)F)c2)=NO1 (stereo not shown) [I-388]
inhibition at 120 g/ha (Aegilops tauschii): 80 to 100% | Herbicidal activities, Alopecurus japonicus (inhibition rate class) (Alopecurus japonicus): A (A indicates that the inhibition rate was greater than or equal to 80% to 100%) | Herbicidal activities, Alopecurus myosuroides (inhibition rate class) (Alopecurus myosuroides): A (A indicates that the inhibition rate was greater than or equal to 80% to 100%) | inhibition at 120 g/ha (Cyperus iria): 60 to 80% | inhibition at 120 g/ha (Digitaria sanguinalis): 60 to 80% | inhibition at 120 g/ha (Eclipta prostrata): 60 to 80% | Herbicidal activities, Leptochloa chinensis (inhibition rate class) (Leptochloa chinensis): A (A indicates that the inhibition rate was greater than or equal to 80% to 100%) | Herbicidal activities, Lolium multiflorum (inhibition rate class) (Lolium multiflorum): B (B indicates that the inhibition rate was greater than or equal to 60% to less than 80%)

COC(=O)C1CC(NC(=O)C2(C)CC(c3cc(Cl)cc(OC(F)F)c3)=NO2)CO1 (stereo not shown) [I-390]
inhibition at 120 g/ha (Aegilops tauschii): 80 to 100% | Herbicidal activities, Alopecurus japonicus (inhibition rate class) (Alopecurus japonicus): A (A indicates that the inhibition rate was greater than or equal to 80% to 100%) | Herbicidal activities, Alopecurus myosuroides (inhibition rate class) (Alopecurus myosuroides): A (A indicates that the inhibition rate was greater than or equal to 80% to 100%) | inhibition at 120 g/ha (Cyperus iria): 60 to 80% | inhibition at 120 g/ha (Digitaria sanguinalis): 60 to 80% | inhibition at 120 g/ha (Eclipta prostrata): 60 to 80% | Herbicidal activities, Leptochloa chinensis (inhibition rate class) (Leptochloa chinensis): A (A indicates that the inhibition rate was greater than or equal to 80% to 100%) | Herbicidal activities, Lolium multiflorum (inhibition rate class) (Lolium multiflorum): B (B indicates that the inhibition rate was greater than or equal to 60% to less than 80%)

COC(=O)C1CC(NC(=O)C2(C(F)(F)F)CC(c3cc(F)cc(OC(F)F)c3)=NO2)CO1 (stereo not shown) [I-394]
inhibition at 120 g/ha (Aegilops tauschii): 80 to 100% | Herbicidal activities, Alopecurus japonicus (inhibition rate class) (Alopecurus japonicus): A (A indicates that the inhibition rate was greater than or equal to 80% to 100%) | Herbicidal activities, Alopecurus myosuroides (inhibition rate class) (Alopecurus myosuroides): A (A indicates that the inhibition rate was greater than or equal to 80% to 100%) | inhibition at 120 g/ha (Digitaria sanguinalis): 60 to 80% | inhibition at 120 g/ha (Eclipta prostrata): 60 to 80% | Herbicidal activities, Leptochloa chinensis (inhibition rate class) (Leptochloa chinensis): A (A indicates that the inhibition rate was greater than or equal to 80% to 100%) | Herbicidal activities, Lolium multiflorum (inhibition rate class) (Lolium multiflorum): A (A indicates that the inhibition rate was greater than or equal to 80% to 100%)

O=C(O)C1CC(NC(=O)C2(C(F)(F)F)CC(c3cc(Cl)cc(OC(F)F)c3)=NO2)CO1 (stereo not shown) [I-395]
inhibition at 120 g/ha (Aegilops tauschii): 60 to 80% | Herbicidal activities, Alopecurus myosuroides (inhibition rate class) (Alopecurus myosuroides): A (A indicates that the inhibition rate was greater than or equal to 80% to 100%) | inhibition at 120 g/ha (Cyperus iria): 60 to 80% | inhibition at 120 g/ha (Digitaria sanguinalis): 60 to 80% | inhibition at 120 g/ha (Eclipta prostrata): 60 to 80% | Herbicidal activities, Leptochloa chinensis (inhibition rate class) (Leptochloa chinensis): A (A indicates that the inhibition rate was greater than or equal to 80% to 100%) | Herbicidal activities, Lolium multiflorum (inhibition rate class) (Lolium multiflorum): A (A indicates that the inhibition rate was greater than or equal to 80% to 100%)

COC(=O)C1CC(NC(=O)C2(C(F)(F)F)CC(c3cc(Cl)cc(OC(F)(F)F)c3)=NO2)CO1 (stereo not shown) [I-400]
inhibition at 120 g/ha (Aegilops tauschii): 80 to 100% | Herbicidal activities, Alopecurus myosuroides (inhibition rate class) (Alopecurus myosuroides): A (A indicates that the inhibition rate was greater than or equal to 80% to 100%) | inhibition at 120 g/ha (Cyperus iria): 60 to 80% | inhibition at 120 g/ha (Digitaria sanguinalis): 80 to 100% | inhibition at 120 g/ha (Eclipta prostrata): 80 to 100% | Herbicidal activities, Leptochloa chinensis (inhibition rate class) (Leptochloa chinensis): A (A indicates that the inhibition rate was greater than or equal to 80% to 100%)

COC(=O)[C@@H]1C=C[C@H](NC(=O)C2(C)CC(c3cc(F)cc(OC(F)(F)F)c3)=NO2)C1 (stereo partly shown) [I-489]
inhibition at 120 g/ha (Aegilops tauschii): 80 to 100% | Herbicidal activity (inhibition rate class), Alopecurus japonicus (Alopecurus japonicus): A (A indicates that the inhibition rate was greater than or equal to 80% to 100%) | Herbicidal activity (inhibition rate class), Alopecurus myosuroides (Alopecurus myosuroides): A (A indicates that the inhibition rate was greater than or equal to 80% to 100%) | inhibition at 120 g/ha (Cyperus iria): 80 to 100% | inhibition at 120 g/ha (Digitaria sanguinalis): 60 to 80% | Herbicidal activity (inhibition rate class), Eleusine indica (Eleusine indica): A (A indicates that the inhibition rate was greater than or equal to 80% to 100%) | Herbicidal activity (inhibition rate class), Leptochloa chinensis (Leptochloa chinensis): A (A indicates that the inhibition rate was greater than or equal to 80% to 100%) | Herbicidal activity (inhibition rate class), Lolium multiflorum (Lolium multiflorum): A (A indicates that the inhibition rate was greater than or equal to 80% to 100%)
